According to BindingDB's records for doi:10.1021/jm021108n (Ghent University, 2003):

target: Thymidylate kinase (Homo sapiens) (UniProt P23919); experiment: In Vitro inhibition of […] (TMPKh)

Question: For Cc1cn([C@H]2C[C@H](CO)[C@@H](CO)O2)c(=O)[nH]c1=O [1-(4,5-Bis-hydroxymethyl-tetrahydro-furan-2-yl)-5-methyl-1H-pyrimidine-2,4-dione], which Ki is on record?
Answer: 420 µM

Question: With Cc1cn([C@@H]2O[C@H](CO)[C@@H](CN)[C@H]2O)c(=O)[nH]c1=O [1-(4-Aminomethyl-3-hydroxy-5-hydroxymethyl-tetrahydro-furan-2-yl)-5-methyl-1H-pyrimidine-2,4-dione] as the molecule, how does the Ki read?
Answer: 110 µM

Question: For Cc1cn([C@H]2C[C@H](CO)[C@@H](COP(=O)(O)O)O2)c(=O)[nH]c1=O [Phosphoric acid mono-[3-hydroxymethyl-5-(5-methyl-2,4-dioxo-3,4-dihydro-2H-pyrimidin-1-yl)-tetrahydro-furan-2-ylmethyl] ester], which Ki is on record?
Answer: 43.5 µM

Question: With Cc1cn([C@H]2C[C@H](CF)[C@@H](COP(=O)(O)O)O2)c(=O)[nH]c1=O [Phosphoric acid mono-[3-fluoromethyl-5-(5-methyl-2,4-dioxo-3,4-dihydro-2H-pyrimidin-1-yl)-tetrahydro-furan-2-ylmethyl] ester] as the molecule, how does the Ki read?
Answer: 40 µM

Question: Which Ki does the source give for Cc1cn([C@H]2C[C@H](CN=[N+]=[N-])[C@@H](CO)O2)c(=O)[nH]c1=O [1-(4-Azidomethyl-5-hydroxymethyl-tetrahydro-furan-2-yl)-5-methyl-1H-pyrimidine-2,4-dione] here?
Answer: 1040 µM

Question: For Cc1cn([C@H]2C[C@H](CN=[N+]=[N-])[C@@H](COP(=O)(O)O)O2)c(=O)[nH]c1=O [Phosphoric acid mono-[3-azidomethyl-5-(5-methyl-2,4-dioxo-3,4-dihydro-2H-pyrimidin-1-yl)-tetrahydro-furan-2-ylmethyl] ester], which Ki is on record?
Answer: 32 µM

Question: Cc1cn([C@H]2C[C@H](CN)[C@@H](CO)O2)c(=O)[nH]c1=O [1-(4-Aminomethyl-5-hydroxymethyl-tetrahydro-furan-2-yl)-5-methyl-1H-pyrimidine-2,4-dione] was tested. Which Ki did it give?
Answer: 220 µM

Question: Which Ki does the source give for Cc1cn([C@H]2C[C@H](CF)[C@@H](CO)O2)c(=O)[nH]c1=O [1-(4-Fluoromethyl-5-hydroxymethyl-tetrahydro-furan-2-yl)-5-methyl-1H-pyrimidine-2,4-dione] here?
Answer: 970 µM

Question: Cc1cn([C@@H]2O[C@H](COP(=O)(O)O)[C@@H](CN)[C@H]2O)c(=O)[nH]c1=O [Phosphoric acid mono-[3-aminomethyl-4-hydroxy-5-(5-methyl-2,4-dioxo-3,4-dihydro-2H-pyrimidin-1-yl)-tetrahydro-furan-2-ylmethyl] ester] was tested. Which Ki did it give?
Answer: 280 µM

Question: For Cc1cn([C@H]2C[C@H](CN)[C@@H](COP(=O)(O)O)O2)c(=O)[nH]c1=O [Phosphoric acid mono-[3-aminomethyl-5-(5-methyl-2,4-dioxo-3,4-dihydro-2H-pyrimidin-1-yl)-tetrahydro-furan-2-ylmethyl] ester], which Ki is on record?
Answer: 4.7 µM
